Key:
HCT-116 = assay: Cell morphology (light microscope), HCT-116; format: cell-based, human; settings: HCT-116, 25–100 μM, 24 h
Procedure: To evaluate the changes in morphology of the treated cells, they were incubated with increasing concentrations of 37 (HCT-116, HeLa) or 46 (MCF-7) for 24 h and observed using light microscope.
The HCT-116, HeLa and MCF-7cells were seeded on 24-well plates (5 × 10^4/per well) in 300 μL of medium and incubated with 37 (HCT-116, HeLa) or 46 (MCF-7) for 24 h. Cells incubated with increasing concentrations of compounds (25–100 μM) were observed after 24 h using light microscope Axiovert 200 (Zeiss, Oberkochen, Germany).

[1] = Metabolic stability with human liver microsomes and NADPH; format: in vitro ADME; settings: liver microsomes, pH 7.4, human liver microsomes 0.5 mg/mL, 1 mM NADPH, 10 μM compound, pH 7.4, 37 °C, up to 60 min, read-out: In Vitro Metabolic Half-Life t1/2
Procedure: Stock solutions of studied compounds were prepared at concentration of 10 mM in DMSO. […] Incubation mixture contained 10 μM of a studied derivative, 1 mM of NADPH (Sigma-Aldrich) and 0.5 mg/mL of human liver microsomes (HLM, Sigma-Aldrich) in potassium phosphate buffer (0.1 M, pH 7.4). Incubation was carried out in thermostat at 37 °C and started by addition of studied compound. 50 μL samples were taken after 5, 15, 30, 45 and 60 min. Enzymatic reaction was terminated by the addition of the equal volume of ice-cold acetonitrile containing 10 μM of alprazolam (Sigma-Aldrich) serving as internal standard (IS). Control incubations were performed without NADPH to assess chemical instability. After collection, samples were immediately centrifuged (10 min, 10,000 rpm) and resulted supernatant was directly analyzed or kept in −80 °C until LC-MS analysis. Natural logarithm of a compound over IS peak area ratio was plotted versus incubation time. Metabolic half-time (t1/2) was calculated from the slope of the linear regression, as reported in [48].
LC-MS analysis was performed on an Agilent 1260 system coupled to SingleQuad 6120 mass spectrometer (Agilent Technologies, Santa Clara, CA, USA). Ascentis Express ES-CN (2.1 mm × 100 mm, 2.7 μm, Supelco Analytical, Bellefonte, PA, USA) was used in reversed-phase mode with gradient elution starting with 50% of phase A (10 mM ammonium formate in water) and 50% of phase B (10 mM ammonium formate in acetonitrile-water mixture, 95:5 v/v). […] Total analysis time was 10 min at 25 °C, flow rate was 0.4 mL/min and the injection volume was 20 μL. The mass spectrometer was equipped with electrospray ion source and operated in positive ionization. Mass analyzer was set individually to each compound to detect [M + H]^+ pseudomolecular ions. MSD parameters of the ESI source were as follows: nebulizer pressure 50 psig (N2), drying gas […] (N2), drying gas temperature 300 °C, capillary voltage 3.5 kV, fragmentor voltage 100 V.

Cc1cc(S(=O)(=O)Nc2nncc(-c3ccc(C(F)(F)F)cc3)n2)c(SCc2cccc3ccccc23)cc1Cl [Compound 37, 4-Chloro-5-methyl-2-[(naphthalene-1-yl)methylthio]-N-[5-(4-trifluoromethylphenyl)-1,2,4-triazin-3-yl]-benzenesulfonamide]
morphological changes (HCT-116): shrinkage of the cells, detachment from the surface | half-life at 10 μM [1]: 32.8 min

From paper PMC6273912, “Novel 5-Substituted 2-(Aylmethylthio)-4-chloro-N-(5-aryl-1,2,4-triazin-3-yl)benzenesulfonamides: Synthesis, Molecular Structure, Anticancer Activity, Apoptosis-Inducing Activity and Metabolic Stability” (Molecules, 2016)
